Measurements published in patent US20260132128A1, “COMPOUND FOR RECOVERING P53 MUTATION FUNCTION AND USE THEREOF” (SHENZHEN ZHONGGE BIOLOGICAL TECHNOLOGY CO., LTD., priority 2022, published 2026).
Marks after values point to notes of the source that are not given here.

Tests used:
BxPC-3 cells = assay: BxPC-3 cell proliferation test (CTG); type: cell-based; settings: Homo sapiens, 144 h, 6 days
Procedure: To detect the inhibitory effects of the aforementioned compounds on the proliferation ability of BxPC-3 cells, 125 BxPC-3 cells (ATCC®CRL-1687) were seeded into a 384-well plate (Corning 3765), 35 μL per well, and placed in a constant temperature incubator at 37° C. and 5% CO2 overnight. Then, 40 nL of the compound was added to the 384-well plate using an Echo 655 Liquid Handler, with a maximum final concentration of 10 μM, 1:3 serial dilution, and in a total of 10 doses. Incubation was performed at 37° C., 5% CO2 for 6 days. The plate was taken out from the incubator and equilibrated at room temperature for 10 minutes. 20 μL of CTG (Promage G7572) was added to each well of the plate according to the platemap. The plate was centrifuged at 1000 rpm for 1 minute. The lysis of cells was induced by mixing on a shaker for 2 minutes. The plate was centrifuged at 1000 rpm for 1 minute. Incubation was performed at room temperature for 10 minutes to stabilize luminescence signals. Luminescence values were recorded by Envision (PerkinElmer 2105-0020). GraphPad 9.0 was used to fit the inhibition rate and compound concentration into a nonlinear regression curve (dose response-variable slope) to calculate GI50, inhibition rate={1−(A−B)/(C−B)}*100%, A=signal value of compound; B=average signal of blank control; C=average signal of negative control (wherein the negative control was 0.1% DMSO).

NUGC-3 cells = assay: NUGC-3 cell proliferation assay (CTG); type: cell-based, human; settings: for GI50: Homo sapiens, NUGC-3, 144 h, 6 days, CTG; for Compound GI50 (nM)/Reference compound GI50 (nM): multiple ratio of GI50 of the compound to the reference compound
In short: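 GI50 derived by variable-slope regression of percent inhibition (normalized to blank and 0.1% DMSO controls) from CTG luminescence. Compound was given as 10 threefold dilutions, highest final 10 μM, to overnight-seeded NUGC-3 cells (250/well) for 6 days, 37° C, 5% CO2.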

p53 Y220C [1] = target: T1, p53 Y220C (Homo sapiens, UniProt P04637, Y220C); assay: DNA binding test (HTRF): binding of P53Y220C protein to DNA; type: biochemical; settings: multiple ratio of EC50 of the compound to the reference compound, DNA binding test
T1 construct: a truncated mutant containing only amino acids 94-312 of p53; made in house; host or cells: E. coli

p53 Y220C [2] = target: T2, p53 Y220C (Homo sapiens, UniProt P04637, P309S/R273H/Y220C); assay: as above; type: biochemical; settings: HTRF, activation of p53 Y220C (aa 94-312) binding to biotin DNA
T2 construct: a truncated mutant containing only amino acids 94-312 of p53; made in house; host or cells: E. coli

[3] = Caco-2 cell permeability test; type: in vitro ADME; settings: human, pH 7.4, Caco-2, 10 μM; for Papp A→B at 120 min, 10 μM: A to B; for Papp B→A at 120 min, 10 μM: B to A
Procedure: Caco-2 cells (ATCC, Cat. No. HTB-37) were inoculated to a 96-well plate (Corning HTS Transwell, Cat. No. 3391) at 1.25×10^5/cm2, and the culture medium (DMEM+10% FBS+1% Penicillin-Streptomycin Liquid (100×)+1% NEAA) was replaced every 3 to 4 days. The plate was placed in an incubator at 37° C. with 5% CO2 until a confluent cell monolayer was formed after 21 to 28 days. Before the transport experiment, the culture medium was removed from the cell culture plate, and the plate was washed twice with pre-warmed HBSS buffer (10 mM HEPES, pH 7.4), and 100 μL of HBSS buffer was added to each well. After incubation at 37° C. for 30 minutes, the TEER value was measured using a cell resistance meter (Millicell-ERS2) to confirm the integrity and density of the monolayer cells. The HBSS buffer was discarded, the upper plate containing the cell monolayer membrane was transferred to the corresponding receiving plate, 10 mM test compound stock solution was diluted to a concentration of 10 μM with HBSS transport buffer containing 0.5% BSA, and it was added to the apical side (A side) and basolateral side (B side), respectively. Incubation was carried out for 120 min at 37° C., 5% CO2, and 95% relative humidity, and the permeation of the test compound from A side to B side or from B side to A side and the efflux rate of the compound were determined. The test compound and the reference compound were quantified by LC-MS/MS analysis based on the peak area ratio of analyte/internal standard. The apparent permeability coefficient Papp (cm/s) was calculated using the following formula:
[formula] • wherein, dCr/dt represented the functional relation between cumulative concentration of compound in receptor compartment and time; V represented the volume of solution in receptor compartment (0.1 mL at apical side, and 0.25 mL at basolateral side); A represented the transport surface area, i.e., the monolayer cell area was 0.0804 cm^2; CO represented the initial concentration of compound in donor compartment.
The efflux ratio was calculated using the following formula: […]
The percent recovery was calculated using the following formula:
[formula] [formula] • wherein, Vd represented the volume of donor compartment (0.1 mL on the apical side and 0.25 mL on the basolateral side); C and Cr represented the final concentrations of the transported compound in the donor and receptor compartment, respectively; Cc represented the compound concentration in cell lysate; Vc represented the volume of insert well (which was 0.1 mL in this experiment).

| GI50 (BxPC-3 cells) | EC50 (p53 Y220C [2]) | efflux ratio at 120 min, 10 μM [3] | Papp A→B at 120 min, 10 μM [3] | Papp B→A at 120 min, 10 μM [3] | Structure (SMILES) | GI50 (NUGC-3 cells) | Compound GI50 (nM)/Reference compound GI50 (nM) (NUGC-3 cells) | Compound EC50 (nM)/Reference compound EC50 (nM) (p53 Y220C [1]) |
| --- | --- | --- | --- | --- | --- | --- | --- | --- |
| < 1000 nM | 100 to 500 nM |  |  |  | COc1cc(S(C)(=O)=O)ccc1NCC#Cc1nc2c(NC3CCN(C)CC3)cccn2c1CC(F)(F)F [Compound 4] | 1000 to 5000 nM | B (B: GI50 of the reference compound < GI50 of the compound ≤ 3.0 * GI50 of the reference compound) | A (A: EC50 of the compound≤EC50 of the reference compound) |
| 1000 to 5000 nM | 500 to 1000 nM |  |  |  | CNC(=O)c1ccc(NCC#Cc2nc3c(NC4CCN(C)CC4)nccn3c2CC(F)(F)F)c(OC)c1 [Compound 1] | 1000 to 5000 nM | C (C: GI50 of the compound ≥ 3 * GI50 of the reference compound) | C (C: EC50 of the compound≥3*EC50 of the reference compound) |
| < 1000 nM | 100 to 500 nM |  |  |  | COc1cc(S(C)(=O)=O)ccc1NCC#Cc1nc2c(N[C@@H]3CCN(C)C[C@@H]3F)cccn2c1CC(F)(F)F [Compound 3] | < 1000 nM | B (B: GI50 of the reference compound < GI50 of the compound ≤ 3.0 * GI50 of the reference compound) | A (A: EC50 of the compound≤EC50 of the reference compound) |
| < 1000 nM | 100 to 500 nM |  |  |  | CNC(=O)c1ccc(NCC#Cc2nc3c(N[C@H]4CC[C@H](N5CC6(COC6)C5)CC4)cccn3c2CC(F)(F)F)c(OC)c1 [Compound 9] | < 1000 nM | B (B: GI50 of the reference compound < GI50 of the compound ≤ 3.0 * GI50 of the reference compound) | B (B: EC50 of the reference compound<EC50 of the compound≤3.0*EC50 of the reference compound) |
|  | < 100 nM | 1.79 | 3.54 ×10⁻⁶ cm/s | 6.34 ×10⁻⁶ cm/s | CNC(=O)c1ccc(NCC#Cc2nc3c(NC4CCC(N5CCOCC5)C[C@@H]4F)cccn3c2CC(F)(F)F)c(OC)c1 (some centres unmarked) [Compound 44] |  | C (C: GI50 of the compound ≥ 3 * GI50 of the reference compound) | B (B: EC50 of the reference compound<EC50 of the compound≤3.0*EC50 of the reference compound) |
| < 1000 nM |  | 1.84 | 3.7 ×10⁻⁶ cm/s | 6.82 ×10⁻⁶ cm/s | CNC(=O)c1ccc(NCC#Cc2nc3c(NC4CC[C@@H](N5CC6(COC6)C5)C[C@@H]4F)cccn3c2CC(F)(F)F)c(OC2CC2)c1 (some centres unmarked) [Compound 57] |  | B (B: GI50 of the reference compound < GI50 of the compound ≤ 3.0 * GI50 of the reference compound) | B (B: EC50 of the reference compound<EC50 of the compound≤3.0*EC50 of the reference compound) |
| 1000 to 5000 nM | 100 to 500 nM |  |  |  | CNC(=O)c1ccc(NCC#Cc2nc3c(NC4CCS(=O)(=O)CC4)cccn3c2CC(F)(F)F)c(OC)c1 [Compound 10] | 1000 to 5000 nM | C (C: GI50 of the compound ≥ 3 * GI50 of the reference compound) | C (C: EC50 of the compound≥3*EC50 of the reference compound) |
|  |  | 1.52 | 3.97 ×10⁻⁶ cm/s | 6.04 ×10⁻⁶ cm/s | COc1cc(C(=O)N(C)C)ccc1NCC#Cc1nc2c(NC3CC[C@@H](N4CC5(COC5)C4)C[C@@H]3F)cccn2c1CC(F)(F)F (some centres unmarked) [Compound 47] |  | C (C: GI50 of the compound ≥ 3 * GI50 of the reference compound) | B (B: EC50 of the reference compound<EC50 of the compound≤3.0*EC50 of the reference compound) |
| 1000 to 5000 nM | 500 to 1000 nM |  |  |  | CNC(=O)c1ccc(NCC#Cc2nc3c(NC4CCOCC4)cccn3c2CC(F)(F)F)c(OC)c1 [Compound 8] | 1000 to 5000 nM | C (C: GI50 of the compound ≥ 3 * GI50 of the reference compound) | C (C: EC50 of the compound≥3*EC50 of the reference compound) |
|  |  | 1.72 | 2.16 ×10⁻⁶ cm/s | 3.72 ×10⁻⁶ cm/s | CNC(=O)c1ccc(NCC#Cc2nc3c(NC4CC[C@@H](N5CC6(CCC6)C5)C[C@@H]4F)cccn3c2CC(F)(F)F)c(OC)c1 (some centres unmarked) [Compound 42] | < 1000 nM | B (B: GI50 of the reference compound < GI50 of the compound ≤ 3.0 * GI50 of the reference compound) | B (B: EC50 of the reference compound<EC50 of the compound≤3.0*EC50 of the reference compound) |
